Test results: patent publication US10696682B2, “CDK inhibitors” (G1 Therapeutics, Inc., priority 2010, dated 2020)

Molecular target: CDK4/cyclinD (Homo sapiens (Human), UniProt P11802)
Assay: CDK4/CyclinD kinase enzymatic assay (Caliper LabChip)
Format: biochemical
Conditions: tested as HCl salts, 12-point dose response, at the Km for ATP, three hours
Procedure: Kinase enzymatic reactions were performed in 384-well microplates using a 12-channel Caliper LabChip instrument as a detection device. […] As substrate and product are separated, two peaks of fluorescence are observed. Change in the relative fluorescence intensity of the substrate and product peaks is the parameter measured, reflecting enzyme activity. In the presence of an inhibitor, the ratio between product and substrate is altered. The signal of the product decreases, while the signal of the substrate increases.
Potential inhibitor compounds (as HCl salts) were tested using 12-point dose response curves in […] at the Km for ATP. The IC50 of each compound was determined using GraphPad Prism.

Chain of CDK4/cyclinD (P11802 whole entry, species assumed): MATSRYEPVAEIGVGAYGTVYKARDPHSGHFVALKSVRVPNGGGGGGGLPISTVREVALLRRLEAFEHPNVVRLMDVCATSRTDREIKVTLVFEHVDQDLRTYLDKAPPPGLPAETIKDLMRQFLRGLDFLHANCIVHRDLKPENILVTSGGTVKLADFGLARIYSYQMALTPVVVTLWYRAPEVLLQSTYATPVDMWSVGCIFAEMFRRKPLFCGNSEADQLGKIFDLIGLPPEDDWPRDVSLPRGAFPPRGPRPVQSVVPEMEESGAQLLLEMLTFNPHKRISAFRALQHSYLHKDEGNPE
Chain of CDK4/cyclinD (P24385 whole entry partner, species assumed): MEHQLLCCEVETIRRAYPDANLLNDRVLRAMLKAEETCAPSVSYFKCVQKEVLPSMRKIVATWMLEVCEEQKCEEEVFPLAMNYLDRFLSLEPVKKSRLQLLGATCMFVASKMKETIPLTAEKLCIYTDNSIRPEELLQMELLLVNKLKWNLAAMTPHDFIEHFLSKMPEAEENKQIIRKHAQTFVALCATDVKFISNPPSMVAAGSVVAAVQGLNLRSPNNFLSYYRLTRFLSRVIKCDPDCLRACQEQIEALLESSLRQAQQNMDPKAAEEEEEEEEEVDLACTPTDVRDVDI

IC50: 1050 nM
Compound: O=C1NCCn2c1cc1cnc(Nc3ccc(N4CCNCC4)cn3)nc12 [Compound 3]
